In US9475766B2, “Substituted aromatic sulfur compounds and methods of their use” (Cephalon, Inc., priority 2011, dated 2016):

Assays:
Format in all cases: cell-based
[1] = tested on: BxPC3 pancreatic cell line; assay: Cell survival and adhesion assay (luciferase), BxPC3; settings: BXPC-3, 5 hours, BxPC3 cells overlayed onto human mesothelial cell monolayers, read-out: relative reduction in Luciferase activity, BxPC3 10 μM
Procedure: (§1) SU86 is a pancreatic cancer cell line. HT29 is a colon cancer cell line. BxPC3 is a pancreatic cell line. A2780 is an ovarian cancer cell line.
(§2) BxPc-3 and Su.86.86 pancreatic and HT-29 colon and A2780 ovarian cancer cell lines were purchased from ATCC and cultured in DMEM supplemented with 10% fetal bovine serum, glutamine, penicillin, and streptomycin. All cells were cultured at 37° C. in a humidified incubator in a 5% CO2 atmosphere. The cancer cell lines were transduced with a retrovirus containing pLuc-puro, a constitutive luciferase reporter and selected in […] media. Transient transfection of a full-length human c-FLIP construct in the vector pcDNA3 was performed as previously described. Scaife et al. Cancer Research 2002, 62: 6870-78.
(§3) Pancreatic cancer cell cultures (BxPc-3 and Su.86.86) and colon cancer (HT-29) and ovarian cancer (A2780) cells that were stably transfected with a firefly luciferase construct were transiently suspended with trypsin-PBS. 10^5 cells were overlayed onto confluent monolayers of human mesothelial cells in 96-well plates while simultaneously adding various concentrations of compounds of the invention or DMSO for 5 hours. The non-adherent cells were carefully washed away from the wells twice with 100 μl/well of blocking buffer (1% BSA in PBS) and twice again with ice-cold PBS. Adherent and surviving cells were detected by luciferase activity in a luminometer as follows. The cells were lysed in 0.1% TritonX-100, 25 mM Gly-Gly (7.8), MgSO4, 4 mM EGTA, 1 mM DTT. The total protein concentration was normalized with lysis buffer. 50 μl of cell lysate was added per well of a 96-well microtiter plate. 50 μl of luciferin substrate (Promega) was added per well and then the light output determined in a luminometer.

[2] = tested on: A2780 ovarian cancer cell line; assay: Cell survival and adhesion assay (luciferase), A2780; settings: 5 hours, A2780 cells overlayed onto human mesothelial cell monolayers, read-out: relative reduction in Luciferase activity, A2780 10 μM
Procedure: as §1, §2, §3

[3] = tested on: SU86 pancreatic cancer cell line (Su.86.86); assay: Cell survival and adhesion assay (luciferase), SU86; settings: 5 hours, SU86 cells overlayed onto human mesothelial cell monolayers, read-out: relative reduction in Luciferase activity, SU86 10 μM
Procedure: as §1, §2, §3

| SMILES | inhibition at 10 µM [1] [%] | inhibition at 10 µM [2] [%] | inhibition at 10 µM [3] [%] |
| --- | --- | --- | --- |
| N#C/C=C/S(=O)(=O)c1ccc(C2(C(=O)Nc3ccccc3)CCOCC2)cc1 [Example 84, 4-[4-((E)-2-Cyano-ethenesulfonyl)-phenyl]-tetrahydro-pyran-4-carboxylic acid phenylamide] | 10 to 50 | 10 to 50 | – |
| CC(C)(C(=O)NCCc1ccccc1)c1ccc(S(=O)(=O)/C=C/C#N)cc1 [Example 24, 2-[4-((E)-2-Cyano-ethenesulfonyl)-phenyl]-N-phenethyl-isobutyramide] | 50 to 85 | > 85 | 50 to 85 |
| C#CCNC(=O)C(C)(C)c1ccc(S(=O)(=O)/C=C/C#N)cc1 [Example 19, 2-[4-((E)-2-Cyano-ethenesulfonyl)-phenyl]-N-prop-2-ynyl-isobutyramide] | 10 to 50 | 10 to 50 | 10 to 50 |
| N#C/C=C/S(=O)(=O)c1ccc(C2(C(=O)Nc3ccccc3)CCC2)cc1 [Example 75, 1-[4-((E)-2-Cyano-ethenesulfonyl)-phenyl]-cyclobutanecarboxylic acid phenylamide] | > 85 | 50 to 85 | – |
| N#C/C=C/S(=O)(=O)c1ccc(C2(C(=O)NCc3ccc(Cl)cc3)CCOCC2)cc1 [Example 85, 4-[4-((E)-2-Cyano-ethenesulfonyl)-phenyl]-tetrahydro-pyran-4-carboxylic acid 4-chloro-benzylamide] | 50 to 85 | 50 to 85 | – |
| COc1cccc(NC(=O)C(C)(C)c2ccc(S(=O)(=O)/C=C/C#N)cc2)c1 [Example 25, 2-[4-((E)-2-Cyano-ethenesulfonyl)-phenyl]-N-(3-methoxy-phenyl)-isobutyramide] | 50 to 85 | > 85 | 50 to 85 |
| CCNc1nnc(C(C)(C)c2ccc(S(=O)(=O)/C=C/C#N)cc2)o1 [Example 48, (E)-3-{4-[1-(5-Ethylamino-[1,3,4]oxadiazol-2-yl)-1-methyl-ethyl]-benzenesulfonyl}-acrylonitrile] | < 10 | 10 to 50 | < 10 |
| CC(C)(C(=O)NCc1ccc(F)cc1)c1ccc(S(=O)(=O)/C=C/C#N)cc1 [Example 18, 2-[4-((E)-2-Cyano-ethenesulfonyl)-phenyl]-N-(4-fluoro-benzyl)-isobutyramide] | 50 to 85 | > 85 | 50 to 85 |
| CC(C)(C(=O)NCc1cccc(F)c1)c1ccc(S(=O)(=O)/C=C/C#N)cc1 [Example 39, 2-[4-((E)-2-Cyano-ethenesulfonyl)-phenyl]-N-(3-fluoro-benzyl)-isobutyramide] | 10 to 50 | – | – |
| N#C/C=C/S(=O)(=O)c1ccc(C2(C(=O)O)CCC2)cc1 [Example 74, 1-[4-((E)-2-Cyano-ethenesulfonyl)-phenyl]-cyclobutanecarboxylic acid] | < 10 | < 10 | – |
| N#C/C=C/S(=O)(=O)c1ccc(C2(C(=O)NC3CCCCC3)CCC2)cc1 [Example 77, 1-[4-((E)-2-Cyano-ethenesulfonyl)-phenyl]-cyclobutanecarboxylic acid cyclohexylamide] | 50 to 85 | > 85 | – |
| CC(C)(C(=O)NCc1ccc(F)cc1)c1cccc(S(=O)(=O)/C=C/C#N)c1 [Example 37, 2-[3-((E)-2-Cyano-ethenesulfonyl)-phenyl]-N-(4-fluoro-benzyl)-isobutyramide] | 50 to 85 | – | – |
| Cc1ccc2oc(COc3ccc(S(=O)(=O)/C=C/C#N)cc3C(C)(C)C)nc2c1 [Example 81, (E)-3-[3-tert-Butyl-4-(5-methyl-benzoxazol-2-ylmethoxy)-benzenesulfonyl]-acrylonitrile] | 50 to 85 | > 85 | – |
| C[C@@H](NC(=O)C(C)(C)c1ccc(S(=O)(=O)/C=C/C#N)cc1)c1ccccc1 [Example 17, 2-[4-((E)-2-Cyano-ethenesulfonyl)-phenyl]-N—((R)-1-phenyl-ethyl)-isobutyramide] | 50 to 85 | > 85 | 50 to 85 |
| CC(C)(C(=O)NCc1ccc(N)cc1)c1ccc(S(=O)(=O)/C=C/C#N)cc1 [Example 38, N-(4-Amino-benzyl)-2-[4-((E)-2-cyano-ethenesulfonyl)-phenyl]-isobutyramide] | 10 to 50 | – | – |
| N#C/C=C/S(=O)(=O)c1ccc(C2(C(=O)NCc3ccc(F)cc3)CC2)cc1 [Example 67, 1-[4-((E)-2-Cyano-ethenesulfonyl)-phenyl]-cyclopropanecarboxylic acid 4-fluoro-benzylamide] | 50 to 85 | > 85 | – |
| C[C@H](NC(=O)C(C)(C)c1ccc(S(=O)(=O)/C=C/C#N)cc1)c1ccccc1 [Example 16, 2-[4-((E)-2-Cyano-ethenesulfonyl)-phenyl]-N—((S)-1-phenyl-ethyl)-isobutyramide] | 50 to 85 | > 85 | 50 to 85 |
| N#C/C=C/S(=O)(=O)c1ccc(C2(C(=O)NC3CCCCC3)CCOCC2)cc1 [Example 83, 4-[4-((E)-2-Cyano-ethenesulfonyl)-phenyl]-tetrahydro-pyran-4-carboxylic acid cyclohexylamide] | 10 to 50 | < 10 | – |
| N#C/C=C/S(=O)(=O)c1ccc(C2(C(=O)NCc3ccc(Cl)cc3)CCC2)cc1 [Example 76, 1-[4-((E)-2-Cyano-ethenesulfonyl)-phenyl]-cyclobutanecarboxylic acid 4-chloro-benzylamide] | 50 to 85 | > 85 | – |
| CC(C)(C(=O)NC1CCCCC1)c1cccc(S(=O)(=O)/C=C/C#N)c1 [Example 35, 2-[3-((E)-2-Cyano-ethenesulfonyl)-phenyl]-N-cyclohexyl-isobutyramide] | 50 to 85 | – | – |
| N#C/C=C/S(=O)(=O)c1ccc(C2(C(=O)O)CCOCC2)cc1 [Example 82, 4-[4-((E)-2-Cyano-ethenesulfonyl)-phenyl]-tetrahydro-pyran-4-carboxylic acid] | < 10 | < 10 | – |
| Cc1ccc(O)c(NC(=O)COc2ccc(S(=O)(=O)/C=C/C#N)cc2C(C)(C)C)c1 [Example 79, 2-[2-tert-Butyl-4-((E)-2-cyano-ethenesulfonyl)-phenoxy]-N-(2-hydroxy-5-methyl-phenyl)-acetamide] | > 85 | > 85 | – |
| CN(Cc1ccccc1)C(=O)C(C)(C)c1ccc(S(=O)(=O)/C=C/C#N)cc1 [Example 22, N-Benzyl-2-[4-((E)-2-cyano-ethenesulfonyl)-phenyl]-N-methyl-isobutyramide] | > 85 | > 85 | 50 to 85 |
| CC(C)(c1ccc(S(=O)(=O)/C=C/C#N)cc1)c1nc2ccccc2[nH]1 [Example 49, (E)-3-{4-[1-(1H-Benzimidazol-2-yl)-1-methyl-ethyl]-benzenesulfonyl}-acrylonitrile] | < 10 | < 10 | < 10 |
| CC(C)(C(=O)NCc1ccc(-n2cccn2)cc1)c1ccc(S(=O)(=O)/C=C/C#N)cc1 [Example 21, 2-[4-((E)-2-Cyano-ethenesulfonyl)-phenyl]-N-(4-pyrazol-1-yl-benzyl)-isobutyramide] | 50 to 85 | 50 to 85 | 50 to 85 |
| CC(C)(C)OC(=O)NCCOCCOCCNC(=O)C(C)(C)c1ccc(S(=O)(=O)/C=C/C#N)cc1 [Example 34, {2-[2-(2-{2-[4-((E)-2-Cyano-ethenesulfonyl)-phenyl]-2-methyl-propionylamino}-ethoxy)-ethoxy]-ethyl}-carbamic acid tert-butyl ester] | < 10 | – | – |
| COc1cccc(NC(=O)C(C)(C)c2cccc(S(=O)(=O)/C=C/C#N)c2)c1 [Example 36, 2-[3-((E)-2-Cyano-ethenesulfonyl)-phenyl]-N-(3-methoxy-phenyl)-isobutyramide] | 50 to 85 | – | – |
| N#C/C=C/S(=O)(=O)c1ccc(C2(C(=O)NC3CCCCC3)CC2)cc1 [Example 68, 1-[4-((E)-2-Cyano-ethenesulfonyl)-phenyl]-cyclopropanecarboxylic acid cyclohexylamide] | 50 to 85 | > 85 | – |
| CC(C)(c1ccc(S(=O)(=O)/C=C/C#N)cc1)c1nnc(Nc2ccccc2)o1 [Example 47, (E)-3-{4-[1-Methyl-1-(5-phenylamino-[1,3,4]oxadiazol-2-yl)-ethyl]-benzenesulfonyl}-acrylonitrile] | 50 to 85 | 50 to 85 | 10 to 50 |
